Here are results for 16 compounds from patent US12162902B2, “Decarboxylase inhibitors for treating Parkinson's disease” (SAIL BIOMEDICINES, priority 2018, dated 2024).

Like-named read-outs stand apart in the source and are kept apart here.

The target in test [1] is Tyrosine decarboxylase (tdc) (Enterococcus faecalis (strain EnGen0310 / MMH594), UniProt P0DTQ4). Briefly: Inhibition of tyrosine decarboxylase in vitro (dopamine formed from levodopa, LC-MS). In kind it is biochemical. The settings on record: 60 min preincubation of tdc with inhibitor at room temperature, pH 5.5, 9 mM levodopa, 5 min reaction. How it is done: Tyrosine decarboxylase (tdc) was obtained by following a previously published literature procedure (Science, 14 Jun. 2019: Vol. 364, Issue 6445, eaau6323). Tdc (220 nM final concentration) was thawed on ice and then mixed with pyridoxal-5-phosphate (2.2 mM final concentration) in 200 mM sodium acetate buffer, pH 5.5 optionally containing 1 mM TCEP. To this mixture was added inhibitor at a final concentration of 1000, 333, 111, 37, 12, 4.1, 1.4, or 0 μM (final volume: 100 μL; inhibitor was 100-fold concentrated in a solution of DMSO, H2O, or DMSO:H2O (1/1 v/v)). The protein-inhibitor mixture was incubated at room temperature for 60 min. 6 μL of this mixture was then withdrawn from each solution and mixed with 54 μL of 10 mM levodopa in 200 mM sodium acetate buffer pH 5.5. The final concentration of the reaction was 22 nM tdc, 220 μM pyridoxal-5-phosphate, 9 mM levodopa in 200 mM sodium acetate buffer pH 5.5 with 0-100 μM inhibitor. The reaction was proceeded for 5 min at room temperature before quenching by addition of 540 μL acetonitrile containing 0.1 (v/v) formic acid supplemented with 200 nM tolbutamide as an internal standard. The reactions were centrifuged (3,000 g, 10 min), and then 100 μL of each supernatant was transferred to a fresh plate. 100 μL of acetonitrile containing 0.1% (v/v) formic acid supplemented with 200 nM tolbutamide was added. An external standard curve containing 0-150 μM dopamine was prepared in the exact same manner.
Dopamine formed in each reaction was quantified by using an Agilent 6470 triple quadrupole mass spectrometer equipped with an Acquity UPLC. Mobile phase A consisted of H2O containing 10 mM ammonium formate, pH 3.0 and supplemented with 0.1% (v/v) formic acid. Mobile phase B consisted of acetonitrile containing 10 mM ammonium formate, pH 3.0 and supplemented with 0.1% (v/v) formic acid. 5 μL of each sample was injected onto a BEH Amide column (Waters Corporation, 2.1×50 mm, 1.7 μm). The gradient was set to: 100% mobile phase B at 0 min, decreasing linearly to 65% mobile phase B by 1.5 min, held constant at 65% mobile phase B until 2.5 min, ramped back up to 100% mobile phase B by 2.6 min, and held constant at 100% mobile phase B until 4.2 min. The flow rate was 0.6 mL/min. The dopamine was detected by using the mass spectrometer in multiple reaction monitoring (MRM) mode, quantifying the transition 154.1 to 137.0 m/z in positive mode. The fragmentor setting was 74, the collision energy was 9, and the cell accelerator voltage was 4, and the dwell time was 20. Tolbutamide was monitored using MRM and quantifying the transition of 271.1 to 91.0 m/z in positive mode. The fragmentor setting was 88, the collision energy was 37, and the cell accelerator voltage was 4, and the dwell time was 20.
The amount of dopamine was quantified by normalizing the area to the area of tolbutamide internal standard within each sample. This relative response was then compared to that of the standard curve to obtain the dopamine formed within each sample. The concentration of dopamine formed as a function of the inhibitor concentration at the preincubation stage was plotted in GraphPad Prism 8, and the IC50 was calculated using the non-linear fit for the standard IC50 curve equation “[inhibitor] vs response (three parameters).”

For test [2], the system named is Enterococcus faecalis v583. Briefly: Inhibition of E. faecalis decarboxylation activity in vitro (residual levodopa, LC-MS). In kind it is cell-based.
Setting [3] is: E. faecalis v583 culture in BHI broth pH 5 with 1.5 mM levodopa, 24 h at 37° C. anaerobic, read-out: IC50 @ 60 min.
Where [4] appears, read: Enterococcus faecalis, V583, E. faecalis v583 culture in BHI broth pH 5 with 1.5 mM levodopa, 24 h at 37° C. anaerobic, read-out: IC50 @ 60 min.

Sequence of Tyrosine decarboxylase (tdc) (P0DTQ4 whole entry): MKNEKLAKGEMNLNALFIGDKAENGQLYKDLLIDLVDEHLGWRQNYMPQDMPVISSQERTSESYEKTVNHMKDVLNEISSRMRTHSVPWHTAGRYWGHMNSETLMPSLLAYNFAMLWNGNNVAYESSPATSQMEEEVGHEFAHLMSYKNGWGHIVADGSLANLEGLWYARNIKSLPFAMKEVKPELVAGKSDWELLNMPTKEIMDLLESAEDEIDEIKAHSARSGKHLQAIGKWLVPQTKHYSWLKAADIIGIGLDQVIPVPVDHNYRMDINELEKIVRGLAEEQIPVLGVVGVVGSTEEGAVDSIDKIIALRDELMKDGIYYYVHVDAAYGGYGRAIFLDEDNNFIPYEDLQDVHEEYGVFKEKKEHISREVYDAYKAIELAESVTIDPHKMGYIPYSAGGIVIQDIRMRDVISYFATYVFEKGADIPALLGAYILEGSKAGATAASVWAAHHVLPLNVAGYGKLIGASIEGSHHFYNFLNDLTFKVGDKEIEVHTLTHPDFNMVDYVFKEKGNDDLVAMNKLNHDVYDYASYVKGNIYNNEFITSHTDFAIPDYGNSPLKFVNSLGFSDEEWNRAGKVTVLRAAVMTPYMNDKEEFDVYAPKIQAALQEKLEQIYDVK

In the case of “2-amino-2-(fluoromethyl)-4-(4-hydroxyphenyl)butanoic acid [Compound U]”, the IC50 in test [1] (read-out: IC50 @ 60 min) is greater than 1000 µM.
`NC(CF)(Cc1ccc(O)cc1)C(=O)O` (single isomer, unassigned) [S]: the results for the IC50 in test [2] (setting [3]) and in test [1] (read-out: IC50 @ 60 min) were 2 µM and 4 µM, respectively.
The matching figures for `NC(CF)(Cc1ccc(O)cc1)C(=O)O` (single isomer, unassigned) [T]: 18.5 µM and 82.3 µM.
As to `NC(Cc1ccc(O)cc1)(C(=O)O)C(F)F` (stereo not drawn) [Compound K, 2-amino-3,3-difluoro-2-(4-hydroxybenzyl)propanoic Acid], in test [1], the “IC50 @ 60 min” value is given as “Minor inhibition”.
Regarding `NC(CF)(Cc1ccc(O)c(Cl)c1)C(=O)O` (stereo not drawn) [Compound L, 2-amino-2-(3-chloro-4-hydroxybenzyl)-3-fluoropropanoic Acid], the IC50 in test [1] (read-out: IC50 @ 60 min) turned out to be 2.5 µM.
The same measure, in the same setting: the result for `NC(CF)(Cc1ccc(O)c(F)c1)C(=O)O` (stereo not drawn) [Compound M, 2-amino-3-fluoro-2-(3-fluoro-4-hydroxybenzyl)propanoic Acid] reads 3.2 µM.
The same measure, in the same setting: the result for `Cc1cc(CC(N)(CF)C(=O)O)ccc1O` (stereo not drawn) [Compound N, 2-amino-3-fluoro-2-(4-hydroxy-3-methylbenzyl)propanoic Acid] reads 2.6 µM.
Regarding `Cc1cc(CCN)ccc1O` [Compound P, 4-(2-aminoethyl)-2-methylphenol], the IC50 in test [2] (Enterococcus faecalis, V583, read-out: IC50 @ 60 min) is greater than 1000 µM; in test [1] (IC50 @ 60 min) it was greater than 1000 µM.
As for `CC(N)(Cc1ccc(O)c(O)c1)C(=O)O` (stereo not drawn) [Compound Q, 2-amino-3-(3,4-dihydroxyphenyl)-2-methylpropanoic Acid], the IC50 in test [2] (setting [4]) and in test [1] (IC50 @ 60 min) was greater than 1000 µM throughout.
Turning to `NC(CF)(Cc1cccc(O)c1)C(=O)O` (stereo not drawn) [Compound R, 2-amino-3-fluoro-2-(3-hydroxybenzyl)propanoic Acid], the IC50 in test [2] (setting [4]) is greater than 1000 µM. Besides, the “IC50 @ 60 min” value in test [1] was “Minor inhibition”.
For the compound `COC(=O)NC(C)(Cc1ccc(O)cc1)C(=O)O` (stereo not drawn) [Compound V, 3-(4-hydroxyphenyl)-2-((methoxycarbonyl)amino)-2-methylpropanoic Acid], the IC50 in test [2] (setting [4]) and in test [1] (IC50 @ 60 min) was greater than 1000 µM each time.
`COC(=O)NC(CF)(Cc1ccc(O)cc1)C(=O)O` (stereo not drawn) [Compound W, 3-fluoro-2-(4-hydroxybenzyl)-2-((methoxycarbonyl)amino)-propanoic Acid]: the IC50 in test [2] (setting [4]) and in test [1] (IC50 @ 60 min) was greater than 1000 µM throughout.
Turning to `CC(=O)NC(C)(Cc1ccc(O)cc1)C(=O)O` (stereo not drawn) [Compound X, 2-acetamido-3-(4-hydroxyphenyl)-2-methylpropanoic Acid], the IC50 in test [2] (setting [4]) and in test [1] (IC50 @ 60 min) was greater than 1000 µM each time.
As for `CC(=O)NC(CF)(Cc1ccc(O)cc1)C(=O)O` (stereo not drawn) [Compound Y, 2-acetamido-3-fluoro-2-(4-hydroxybenzyl)propanoic acid], the 50% inhibitory concentration (IC50) in test [2] (setting [4]) and in test [1] (IC50 @ 60 min) was greater than 1000 µM each time.
As to `NC(CF)(Cc1ccccc1)C(=O)O` (stereo not drawn) [Compound Z, 2-amino-2-benzyl-3-fluoropropanoic Acid], the IC50 in test [2] (setting [4]) and in test [1] (IC50 @ 60 min) was greater than 1000 µM in each case.
Consider `CCC(N)(Cc1ccc(O)cc1)C(=O)O` (stereo not drawn) [O, 2-amino-2-(4-hydroxybenzyl)butanoic Acid], for which the IC50 in test [2] (setting [4]) and in test [1] (IC50 @ 60 min) was greater than 1000 µM throughout.
